Test results as given in US4232150A, “Oligosaccharide precursors to substituted O-α-D and O-β-D-multigalactopyranosyl and glucopyranosyl 1→4 and 1→6 galactopyranosyl 1→6α-D-glucopyranoses” (American Cyanamid Company, priority 1979, dated 1980).
Where a name gives a salt, the structure may show the parent alone.

Key:
Conditions in all cases: serial twofold dilution assay; higher well number indicates higher activity
activated human C1 = target: T1, activated human C1 (Homo sapiens, UniProt P09871); assay: Test Code 026 (C1 inhibitor); assay type: biochemical
T1 construct: functional test of fluid-phase human C2 destruction in presence of C4
T1 sequence (P09871 16-688): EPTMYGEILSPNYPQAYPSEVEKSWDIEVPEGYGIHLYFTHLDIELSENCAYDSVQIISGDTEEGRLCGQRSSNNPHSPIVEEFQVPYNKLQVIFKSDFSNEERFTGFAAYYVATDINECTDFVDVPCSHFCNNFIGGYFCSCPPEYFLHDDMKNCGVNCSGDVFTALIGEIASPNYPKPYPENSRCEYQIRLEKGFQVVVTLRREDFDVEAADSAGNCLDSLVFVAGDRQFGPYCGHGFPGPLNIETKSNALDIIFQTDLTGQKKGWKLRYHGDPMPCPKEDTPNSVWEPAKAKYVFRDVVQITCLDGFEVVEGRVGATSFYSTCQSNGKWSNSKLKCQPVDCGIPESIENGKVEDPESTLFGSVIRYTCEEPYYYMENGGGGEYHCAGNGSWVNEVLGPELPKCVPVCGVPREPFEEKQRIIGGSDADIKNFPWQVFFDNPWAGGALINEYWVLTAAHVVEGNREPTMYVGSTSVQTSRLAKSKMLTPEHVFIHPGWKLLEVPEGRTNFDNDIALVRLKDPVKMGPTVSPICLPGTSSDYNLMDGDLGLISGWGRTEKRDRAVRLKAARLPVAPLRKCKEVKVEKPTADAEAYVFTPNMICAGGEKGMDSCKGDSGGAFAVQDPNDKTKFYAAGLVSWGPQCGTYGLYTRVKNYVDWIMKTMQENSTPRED
T1 sequence (P00736 18-705 partner): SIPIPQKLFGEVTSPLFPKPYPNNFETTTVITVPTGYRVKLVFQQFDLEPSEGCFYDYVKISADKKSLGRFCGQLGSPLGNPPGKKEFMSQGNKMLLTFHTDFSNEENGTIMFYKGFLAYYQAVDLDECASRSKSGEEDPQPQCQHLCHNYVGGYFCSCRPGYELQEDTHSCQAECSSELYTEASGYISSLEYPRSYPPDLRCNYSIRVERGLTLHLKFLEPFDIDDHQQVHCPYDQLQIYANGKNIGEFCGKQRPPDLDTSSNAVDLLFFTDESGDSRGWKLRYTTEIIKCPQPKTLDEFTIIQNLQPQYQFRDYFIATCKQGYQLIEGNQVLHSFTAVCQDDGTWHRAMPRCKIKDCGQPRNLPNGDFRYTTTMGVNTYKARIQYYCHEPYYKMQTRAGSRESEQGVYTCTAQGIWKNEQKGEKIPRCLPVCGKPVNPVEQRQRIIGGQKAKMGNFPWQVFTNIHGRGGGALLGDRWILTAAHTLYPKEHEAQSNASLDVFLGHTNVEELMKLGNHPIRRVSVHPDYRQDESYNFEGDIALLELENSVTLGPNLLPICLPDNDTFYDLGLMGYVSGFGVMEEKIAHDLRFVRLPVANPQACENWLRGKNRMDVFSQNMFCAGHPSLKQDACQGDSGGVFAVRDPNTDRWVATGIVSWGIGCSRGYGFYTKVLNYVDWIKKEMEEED
T1 sequence (P02745 23-245 partner): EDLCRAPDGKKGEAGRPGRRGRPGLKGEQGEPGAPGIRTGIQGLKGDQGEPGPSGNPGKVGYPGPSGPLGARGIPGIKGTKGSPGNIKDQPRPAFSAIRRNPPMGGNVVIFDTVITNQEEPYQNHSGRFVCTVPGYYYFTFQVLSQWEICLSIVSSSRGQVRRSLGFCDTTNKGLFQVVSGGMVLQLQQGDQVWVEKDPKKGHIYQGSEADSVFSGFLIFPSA
T1 sequence (P02746 28-253 partner): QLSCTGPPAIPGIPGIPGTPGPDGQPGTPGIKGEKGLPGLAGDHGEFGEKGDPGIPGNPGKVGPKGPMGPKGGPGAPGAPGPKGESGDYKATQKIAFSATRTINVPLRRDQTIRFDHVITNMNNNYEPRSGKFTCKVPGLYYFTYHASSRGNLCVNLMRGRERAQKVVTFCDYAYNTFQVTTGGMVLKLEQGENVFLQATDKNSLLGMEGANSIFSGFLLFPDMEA
T1 sequence (P02747 29-245 partner): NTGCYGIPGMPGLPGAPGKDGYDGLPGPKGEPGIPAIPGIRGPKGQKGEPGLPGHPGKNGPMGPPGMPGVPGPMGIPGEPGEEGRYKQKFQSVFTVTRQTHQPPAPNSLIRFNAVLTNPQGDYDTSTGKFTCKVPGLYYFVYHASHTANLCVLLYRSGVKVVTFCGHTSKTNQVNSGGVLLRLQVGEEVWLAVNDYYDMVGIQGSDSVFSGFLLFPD
Source text: (§1) An active inhibitor protects C2 from C1 and C4; (ii) Test Cod3 035 (3-C9 inhibitor)--This test determines the ability of the late components of human complement (C3-C9) to lyse EAC 142 in the presence of appropriate dilutions of the test compound. An active inhibitor protects EAC 142 from lysis by human C3-C9; (iii) Test Code 036 (C-Shunt inhibitor)--In this test human erythrocytes rendered fragile are lysed in autologous serum via the shunt pathway activated by cobra venom factor in the presence of appropriate dilutions of the test compound. Inhibition of the shunt pathway results in failure of lysis; (iv) Forssman Vasculitis Test--Here, the well known complement dependent lesion, Forssman vasculitis, is produced in guinea pigs by intradermal injection of rabbit anti-Forssman antiserum. The lesion is measured in terms of diameter, edema and hemorrhage and the extent to which a combined index of these is inhibited by prior intraperitoneal injection of the test compound at 200 mg/kg is then reported, unless otherwise stated; (v) Forssman Shock Test--Lethal shock is produced in guinea pigs by an i.v. injection of anti-Forssman antiserum and the harmonic mean death time of treated guinea pigs is compared with that of simultaneous controls; (vi) Complement Level Reduction Test--In this test, the above dosed guinea pigs, or others, are bled for serum and the complement level is determined in undiluted serum by the capillary tube method of U.S. Pat. No. 3,876,376 and compared to undosed control guinea pigs; (vii) Cap 50 Test--Here, appropriate amounts of the test compound are added to a pool of guinea pig serum in vitro, after which the undiluted serum capillary tube assay referred to above is run. The concentration of compound inhibiting 50% is reported;
(§2) **Activity in wells, a serial dilution assay; higher well number indicate
(§3) higher activity. The serial dilutions are twofold

[1] = system: late components of human complement (C3-C9); assay: Test Code 035 (C3-C9 inhibitor; C-Late), lysis of EAC 142; assay type: cell-based
Source text: as §1, §2, §3

[2] = system: shunt pathway activated by cobra venom factor; assay: Test Code 036 (C-Shunt inhibitor), lysis of human erythrocytes by cobra venom factor; assay type: cell-based
Source text: as §1, §2, §3

| Structure (SMILES) | C1 026* Wells (activated human C1) | C-Late 035* Wells [1] | Shunt Inhibition 036* Wells [2] |
| --- | --- | --- | --- |
| O=S(=O)(O)OC[C@H]1O[C@@H](OC[C@H]2O[C@H](OC[C@H]3O[C@H](OS(=O)(=O)O)[C@H](OS(=O)(=O)O)[C@@H](OS(=O)(=O)O)[C@@H]3OS(=O)(=O)O)[C@H](OS(=O)(=O)O)[C@@H](OS(=O)(=O)O)[C@H]2OS(=O)(=O)O)[C@H](OS(=O)(=O)O)[C@@H](OS(=O)(=O)O)[C@@H]1O[C@H]1O[C@H](COS(=O)(=O)O)[C@@H](O[C@H]2O[C@H](COS(=O)(=O)O)[C@@H](OS(=O)(=O)O)[C@H](OS(=O)(=O)O)[C@H]2OS(=O)(=O)O)[C@H](OS(=O)(=O)O)[C@H]1OS(=O)(=O)O [(glc →1α,4)2 glc →1β,6 gal →1α,6 heptadecakis (H-sulfate), h] [(Glc 1α,4)2 glc 1β,6 gal 1α,6 glc heptadecakis (H-sulfate) heptadecasodium salt] | +9 Wells | +2 Wells | +6 Wells |
| O=S(=O)(O)OC[C@H]1O[C@@H](OC[C@H]2O[C@H](OC[C@H]3OC(OS(=O)(=O)O)[C@H](OS(=O)(=O)O)[C@@H](OS(=O)(=O)O)[C@@H]3OS(=O)(=O)O)[C@H](OS(=O)(=O)O)[C@@H](OS(=O)(=O)O)[C@H]2OS(=O)(=O)O)[C@H](OS(=O)(=O)O)[C@@H](OS(=O)(=O)O)[C@@H]1O[C@H]1O[C@H](COS(=O)(=O)O)[C@@H](O[C@H]2O[C@H](COS(=O)(=O)O)[C@@H](O[C@H]3O[C@H](COS(=O)(=O)O)[C@@H](O[C@H]4O[C@H](COS(=O)(=O)O)[C@@H](O[C@H]5O[C@H](COS(=O)(=O)O)[C@@H](O[C@H]6O[C@H](COS(=O)(=O)O)[C@@H](OS(=O)(=O)O)[C@H](OS(=O)(=O)O)[C@H]6OS(=O)(=O)O)[C@H](OS(=O)(=O)O)[C@H]5OS(=O)(=O)O)[C@H](OS(=O)(=O)O)[C@H]4OS(=O)(=O)O)[C@H](OS(=O)(=O)O)[C@H]3OS(=O)(=O)O)[C@H](OS(=O)(=O)O)[C@H]2OS(=O)(=O)O)[C@H](OS(=O)(=O)O)[C@H]1OS(=O)(=O)O (stereo partly drawn) [(glc →1α,4)6 glc →1β,6 gal →1α,6 glc nonacosakis (H-sulfate)] [(Glc 1α,4)6 glc 1β,6 gal 1α,6 glc nonacosakis (H-sulfate) nonacosasalt with trimethylamine] | +10 Wells | +1 Wells | +5 Wells |
| O=S(=O)(O)OC[C@H]1O[C@@H](OC[C@H]2O[C@H](OC[C@H]3OC(OS(=O)(=O)O)[C@H](OS(=O)(=O)O)[C@@H](OS(=O)(=O)O)[C@@H]3OS(=O)(=O)O)[C@H](OS(=O)(=O)O)[C@@H](OS(=O)(=O)O)[C@H]2OS(=O)(=O)O)[C@H](OS(=O)(=O)O)[C@@H](OS(=O)(=O)O)[C@@H]1O[C@H]1O[C@H](COS(=O)(=O)O)[C@@H](O[C@H]2O[C@H](COS(=O)(=O)O)[C@@H](O[C@H]3O[C@H](COS(=O)(=O)O)[C@@H](O[C@H]4O[C@H](COS(=O)(=O)O)[C@@H](O[C@H]5O[C@H](COS(=O)(=O)O)[C@@H](O[C@H]6O[C@H](COS(=O)(=O)O)[C@@H](OS(=O)(=O)O)[C@H](OS(=O)(=O)O)[C@H]6OS(=O)(=O)O)[C@H](OS(=O)(=O)O)[C@H]5OS(=O)(=O)O)[C@H](OS(=O)(=O)O)[C@H]4OS(=O)(=O)O)[C@H](OS(=O)(=O)O)[C@H]3OS(=O)(=O)O)[C@H](OS(=O)(=O)O)[C@H]2OS(=O)(=O)O)[C@H](OS(=O)(=O)O)[C@H]1OS(=O)(=O)O (stereo partly drawn) [(glc →1α,4)6 glc →1β,6 gal →1α,6 nonacosakis (H-sulfate), no] [(Glc 1α,4)6 glc 1β,6 gal 1α,6 glc nonacosakis (H-sulfate) nonacosasodium salt] | +9 Wells | +3 Wells | +5 Wells |
| O=S(=O)(O)OC[C@H]1O[C@@H](OC[C@H]2O[C@H](OC[C@H]3O[C@H](OS(=O)(=O)O)[C@H](OS(=O)(=O)O)[C@@H](OS(=O)(=O)O)[C@@H]3OS(=O)(=O)O)[C@H](OS(=O)(=O)O)[C@@H](OS(=O)(=O)O)[C@H]2OS(=O)(=O)O)[C@H](OS(=O)(=O)O)[C@@H](OS(=O)(=O)O)[C@@H]1O[C@H]1O[C@H](COS(=O)(=O)O)[C@@H](O[C@H]2O[C@H](COS(=O)(=O)O)[C@@H](OS(=O)(=O)O)[C@H](OS(=O)(=O)O)[C@H]2OS(=O)(=O)O)[C@H](OS(=O)(=O)O)[C@H]1OS(=O)(=O)O [(glc →1α,4) 2 glc →1β,6 gal →1α,6 heptadecakis (H-sulfate), ] [(Glc 1α,4)2 glc 1β,6 gal 1α,6 glc heptadecakis (H-sulfate) heptadecasalt with trimethylamine] | +9 Wells | +1 Wells |  |
| O=S(=O)(O)OC[C@H]1O[C@H](OC[C@H]2OC(OS(=O)(=O)O)[C@H](OS(=O)(=O)O)[C@@H](OS(=O)(=O)O)[C@@H]2OS(=O)(=O)O)[C@H](OS(=O)(=O)O)[C@@H](OS(=O)(=O)O)[C@H]1OS(=O)(=O)O (stereo partly drawn) [Gal 1α,6 glc octakis (H-sulfate), octasodium salt] | +8 Wells |  |  |
| O=S(=O)(O)OC[C@H]1O[C@H](OC[C@H]2O[C@@H](OC[C@H]3O[C@H](OC[C@H]4O[C@H](OS(=O)(=O)O)[C@H](OS(=O)(=O)O)[C@@H](OS(=O)(=O)O)[C@@H]4OS(=O)(=O)O)[C@H](OS(=O)(=O)O)[C@@H](OS(=O)(=O)O)[C@H]3OS(=O)(=O)O)[C@H](OS(=O)(=O)O)[C@@H](OS(=O)(=O)O)[C@@H]2OS(=O)(=O)O)[C@H](OS(=O)(=O)O)[C@@H](OS(=O)(=O)O)[C@H]1OS(=O)(=O)O [gal →1α,6 glc →1β,6 gal →1α,6 tetradecakis (H-sulfate), tetr] [Gal 1α,6 glc 1β,6 gal 1α,6 glc tetradecakis (H-sulfate), tetradecasalt with trimethylamine] | +9 Wells | +1 Wells | +5 Wells |
| O=S(=O)(O)OC[C@H]1O[C@@H](OC[C@H]2O[C@H](OC[C@H]3O[C@H](OS(=O)(=O)O)[C@H](OS(=O)(=O)O)[C@@H](OS(=O)(=O)O)[C@@H]3OS(=O)(=O)O)[C@H](OS(=O)(=O)O)[C@@H](OS(=O)(=O)O)[C@H]2OS(=O)(=O)O)[C@H](OS(=O)(=O)O)[C@@H](OS(=O)(=O)O)[C@H]1OS(=O)(=O)O [gal →1β,6 gal →1α,6 glc undecakis -sulfate), undecasalt with] [Gal 1β,6 gal 1α,6 glc undecakis (H-sulfate), undecasalt with trimethylamine] | +9 Wells |  |  |
| O=S(=O)(O)OC[C@H]1O[C@@H](OC[C@H]2O[C@H](OC[C@H]3O[C@H](OS(=O)(=O)O)[C@H](OS(=O)(=O)O)[C@@H](OS(=O)(=O)O)[C@@H]3OS(=O)(=O)O)[C@H](OS(=O)(=O)O)[C@@H](OS(=O)(=O)O)[C@H]2OS(=O)(=O)O)[C@H](OS(=O)(=O)O)[C@@H](OS(=O)(=O)O)[C@H]1OS(=O)(=O)O [gal →1β,6 gal →1α,6 glc undecakis -sulfate), undecasodium sa] [Gal 1β,6 gal 1α,6 glc undecakis (H-sulfate), undecasodium salt] | +9 Wells |  |  |
| O=S(=O)(O)OC[C@H]1O[C@@H](OC[C@H]2O[C@H](OC[C@H]3OC(OS(=O)(=O)O)[C@H](OS(=O)(=O)O)[C@@H](OS(=O)(=O)O)[C@@H]3OS(=O)(=O)O)[C@H](OS(=O)(=O)O)[C@@H](OS(=O)(=O)O)[C@H]2OS(=O)(=O)O)[C@H](OS(=O)(=O)O)[C@@H](OS(=O)(=O)O)[C@@H]1O[C@H]1O[C@H](COS(=O)(=O)O)[C@@H](OS(=O)(=O)O)[C@H](OS(=O)(=O)O)[C@H]1OS(=O)(=O)O (stereo partly drawn) [glc →1α,4 glc →1β,6 gal →1α,6 glc tetradecakis (H-sulfate), ] [Glc 1α,4 glc 1β,6 gal 1α,6 glc tetradecakis (H-sulfate), tetradecasalt with trimethylamine] |  | +1 Wells |  |
| O=S(=O)(O)OC[C@H]1O[C@@H](OC[C@H]2O[C@H](OC[C@H]3O[C@H](OS(=O)(=O)O)[C@H](OS(=O)(=O)O)[C@@H](OS(=O)(=O)O)[C@@H]3OS(=O)(=O)O)[C@H](OS(=O)(=O)O)[C@@H](OS(=O)(=O)O)[C@H]2OS(=O)(=O)O)[C@H](OS(=O)(=O)O)[C@@H](OS(=O)(=O)O)[C@@H]1O[C@@H]1O[C@H](COS(=O)(=O)O)[C@@H](OS(=O)(=O)O)[C@H](OS(=O)(=O)O)[C@H]1OS(=O)(=O)O [glc →1β,4 glc →1β,6 gal →1α,6 glc tetradecakis (H-sulfate), ] [Glc 1β,4 glc 1β,6 gal 1α,6 glc tetradecakis (H-sulfate), tetradecasodium salt] | +9 Wells |  |  |
| O=S(=O)(O)OC[C@H]1O[C@@H](OC[C@H]2O[C@H](OC[C@H]3O[C@H](OS(=O)(=O)O)[C@H](OS(=O)(=O)O)[C@@H](OS(=O)(=O)O)[C@@H]3OS(=O)(=O)O)[C@H](OS(=O)(=O)O)[C@@H](OS(=O)(=O)O)[C@H]2OS(=O)(=O)O)[C@H](OS(=O)(=O)O)[C@@H](OS(=O)(=O)O)[C@@H]1O[C@@H]1O[C@H](COS(=O)(=O)O)[C@@H](OS(=O)(=O)O)[C@H](OS(=O)(=O)O)[C@H]1OS(=O)(=O)O [glc →1β,4 glc →1β,6 gal →1α,6 glc tetradicakis (H-sulfate), ] [Glc 1β,4 glc 1β,6 gal 1α,6 glc tetradecakis (H-sulfate), tetradecasalt with trimethylamine] | +9 Wells |  | +4 Wells |
